Measured values taken from ChEMBL document CHEMBL1143521, “Synthesis and antitumor activity of 7-ethyl-9-alkyl derivatives of camptothecin” (Bioorg Med Chem Lett, 2005).

How the values were obtained:
HCT-116 = assay: Inhibitory concentration against human HCT116 colon cancer cell line; format: functional, cell-based
Bel-7402 = assay: Inhibitory concentration against human Bel-7402 liver cancer cell line; format: functional, cell-based
[1] = Lethal toxicity against mouse tumor sarcoma-180 model after intraperitoneal administration of 2.5 mg/kg dose expressed as number of deaths out of 10 mice; format: organism-based; set-up: dose 2.5 mg/kg, route intraperitoneal; conditions: in vivo, ip
Mus musculus [2] = assay: Percent tumor-weight inhibition in mouse tumor sarcoma-180 model after intraperitoneal administration of 2.5 mg/kg dose in comparison with control mice; format: functional
Mus musculus [3] = assay: Average tumor weight in mouse tumor sarcoma-180 model after intraperitoneal administration of 2.5 mg/kg dose; format: functional
Mus musculus [4] = assay: Percent change in body-weight of mouse tumor sarcoma-180 model after intraperitoneal administration of 2.5 mg/kg dose; format: functional
[5] = Lethal toxicity against mouse tumor sarcoma-180 model after intraperitoneal administration of 5 mg/kg dose expressed as number of deaths out of 10 mice; format: organism-based; set-up: dose 5 mg/kg, route intraperitoneal; conditions: in vivo, ip
Mus musculus [6] = assay: Percent change in body-weight of mouse tumor sarcoma-180 model after intraperitoneal administration of 5 mg/kg dose; format: functional
Mus musculus [7] = assay: Percent tumor-weight inhibition in mouse tumor sarcoma-180 model after intraperitoneal administration of 5 mg/kg dose in comparison with control mice; format: functional
Mus musculus [8] = assay: Average tumor weight in mouse tumor sarcoma-180 model after intraperitoneal administration of 5 mg/kg dose; format: functional
[9] = Lethal toxicity against mouse tumor sarcoma-180 model after intraperitoneal administration of 75 mg/kg dose expressed as number of deaths out of […]; format: organism-based; set-up: dose 75 mg/kg, route intraperitoneal; conditions: in vivo, ip
Mus musculus [10] = assay: Percent change in body-weight of mouse tumor sarcoma-180 model after intraperitoneal administration of 75 mg/kg dose; format: functional
Mus musculus [11] = assay: Percent tumor-weight inhibition in mouse tumor sarcoma-180 model after intraperitoneal administration of 75 mg/kg dose in comparison with control mice; format: functional
Mus musculus [12] = assay: Average tumor weight in mouse tumor sarcoma-180 model after intraperitoneal administration of 75 mg/kg dose; format: functional

Structure (SMILES): CCCc1c(O)ccc2nc3c(c(CC)c12)Cn1c-3cc2c(c1=O)COC(=O)[C@]2(O)CC
- IC50 (HCT-116): 0.012 µM
- IC50 (Bel-7402): 3.01 µM

Structure (SMILES): CCc1c(OC)ccc2nc3c(c(CC)c12)Cn1c-3cc2c(c1=O)COC(=O)[C@]2(O)CC
- IC50 (HCT-116): 0.061 µM
- IC50 (Bel-7402): 2.4 µM

Structure (SMILES): C=CCc1c(O)ccc2nc3c(c(CC)c12)Cn1c-3cc2c(c1=O)COC(=O)[C@]2(O)CC
- Lethal toxicity [1]: 0
- IC50 (HCT-116): 0.014 µM
- IC50 (Bel-7402): 2.75 µM
- TWI (Mus musculus [2]): 81.2%
- TW (Mus musculus [3]): 0.62
- BWC (Mus musculus [4]): 9%

Structure (SMILES): CCc1c(O)ccc2nc3c(c(CC)c12)Cn1c-3cc2c(c1=O)COC(=O)[C@]2(O)CC
- IC50 (HCT-116): 0.023 µM
- IC50 (Bel-7402): 2.01 µM

Structure (SMILES): CCCc1c(OC)ccc2nc3c(c(CC)c12)Cn1c-3cc2c(c1=O)COC(=O)[C@]2(O)CC
- IC50 (HCT-116): 0.153 µM
- IC50 (Bel-7402): 3.84 µM

Structure (SMILES): C=CCc1c(OC)ccc2nc3c(c(CC)c12)Cn1c-3cc2c(c1=O)COC(=O)[C@]2(O)CC
- IC50 (HCT-116): 0.068 µM
- IC50 (Bel-7402): 2.16 µM

Structure (SMILES): CCc1c2c(nc3ccc(O)cc13)-c1cc3c(c(=O)n1C2)COC(=O)[C@]3(O)CC [7-ETHYL-10-HYDROXYCAMPTOTHECIN]
- Lethal toxicity [5]: 0
- IC50 (HCT-116): 0.007 µM
- IC50 (Bel-7402): 3.19 µM
- BWC (Mus musculus [6]): 45%
- TWI (Mus musculus [7]): 41.5%
- TW (Mus musculus [8]): 1.93

Structure (SMILES): O=c1[nH]cc(F)c(=O)[nH]1 [FLUOROURACIL]
- Lethal toxicity [9]: 0
- BWC (Mus musculus [10]): 74%
- TWI (Mus musculus [11]): 53.9%
- TW (Mus musculus [12]): 1.52

Structure (SMILES): CC[C@@]1(O)C(=O)OCc2c1cc1n(c2=O)Cc2cc3cc(O)ccc3nc2-1 [HYDROXYCAMPTOTHECIN]
- IC50 (HCT-116): 0.148 µM
- IC50 (Bel-7402): 2.47 µM

Structure (SMILES): CC[C@@]1(O)C(=O)OCc2c1cc1n(c2=O)Cc2cc3c(CN(C)C)c(O)ccc3nc2-1 [TOPOTECAN]
- IC50 (HCT-116): 0.1 µM
- IC50 (Bel-7402): 3.98 µM
